Experimental data reported in US20140088144A1, “INHIBITING MICROBIAL INFECTIONS” (THE UNIVERSITY OF KANSAS, priority 2012, published 2014).

Columns and labels:
RhaS-GB1^201b = target: T1, RhaS-GB1^201b (Escherichia coli, UniProt P09377, L201R); test: EMSA in vitro DNA binding by RhaS-GB1^201b; assay type: biochemical, E. coli
T1 construct: solubility-enhancement tag to the C-terminus of full-length RhaS L201R; GB1basic (basic variant of GB1 solubility-enhancement tag) (C); made in house; host or cells: E. coli Acella, pET21-derived plasmid
Description: All proteins for this study were expressed in E. coli. Untagged CRP was purified by Ni^2+-affinity chromatography as described. Lad protein was purified by ammonium sulfate precipitation and phosphocellulose column chromatography as described. RhaS-GB1^201b and GB1^b-RhaR were purified by Ni^2+-affinity chromatography. Briefly, plasmids derived from pET21 and expressing RhaS-GB1^201b and GB1^b-RhaR were transformed into competent cells of strains Acella™ (MoBiTec, Gottingen, Germany) or ArcticExpress(DE3) (Agilent Technologies, Santa Clara Calif.), respectively. The cells were grown in 1 liter TY plus ampicillin and rhamnose. Gentamycin was also added for GB1^b-RhaR. The cells were grown to OD600 of 0.5, transferred to a 15° C. shaker, 0.1 mM IPTG was added, and then incubated overnight. Cells were harvested by centrifugation and then resuspended in 30 mL of cold binding buffer (20 mM Tris, 500 mM NaCl, 5 mM imidazole, pH 7.9) plus L-rhamnose. […]
(§1) IRD700- and DY682-labeled oligos were from Eurofins MWG Operon. […] EMSA gels were imaged using an Odyssey infrared imager (LI-COR, Lincoln, Nebr.), and quantified using the Odyssey software, version 3.0.30. […] Inhibition values were calculated and graphs were drawn as for in vivo dose-response experiments.

GB1^b-RhaR = target: T2, GB1^b-RhaR (Escherichia coli, UniProt P09378); test: EMSA in vitro DNA binding by GB1^b-RhaR; assay type: biochemical, E. coli
T2 construct: GB1basic (N); made in house; host or cells: E. coli ArcticExpress(DE3), pET21-derived plasmid
Description: All proteins for this study were expressed in E. coli. Untagged CRP was purified by Ni^2+-affinity chromatography as described. Lad protein was purified by ammonium sulfate precipitation and phosphocellulose column chromatography as described. RhaS-GB1^201b and GB1^b-RhaR were purified by Ni^2+-affinity chromatography. Briefly, plasmids derived from pET21 and expressing RhaS-GB1^201b and GB1^b-RhaR were transformed into competent cells of strains Acella™ (MoBiTec, Gottingen, Germany) or ArcticExpress(DE3) (Agilent Technologies, Santa Clara Calif.), respectively. The cells were grown in 1 liter TY plus ampicillin and rhamnose. Gentamycin was also added for GB1^b-RhaR. The cells were grown to OD600 of 0.5, transferred to a 15° C. shaker, 0.1 mM IPTG was added, and then incubated overnight. Cells were harvested by centrifugation and then resuspended in 30 mL of cold binding buffer (20 mM Tris, 500 mM NaCl, 5 mM imidazole, pH 7.9) plus L-rhamnose. Cells were lysed by three cycles of freeze thaw [with addition of lysozyme (0.4 mg/mL), tris(2-carboxyethyl)phosphine (TCEP, 1 mM) and phenylmethylsulfonyl fluoride (PMSF, 1 mM), at −80° C.] followed by sonication, and then centrifuged to remove cell debris. The supernatant was applied using an AKTAexplorer FPLC (GE Healthcare) to a 5 mL HiTrap Chelating HP column (GE Healthcare) that had been charged with 50 mM NiSO4, and equilibrated with 15 mL H2O and then 15 mL binding buffer. After loading, the column was washed with 25 mL binding buffer, then 25 mL wash buffer (binding buffer, but with 60 mM imidazole) plus L-rhamnose. A 10 mL gradient of binding buffer with 60 mM to 250 mM imidazole from was run and then 15 mL of elution buffer (binding buffer, but with 250 mM imidazole). […]
as §1

MBP-NS1-NTD = test: Fluorescence-based thermal shift assay (Sypro Orange), control protein; assay type: binding; conditions: 0 or 80 μM SE-1, 1 μM protein
Description: Binding of SE-1 to purified VirF was tested by comparing the VirF melting temperature (Tm) in the absence and presence of SE-1 using a thermal shift assay with the fluorescent dye Sypro Orange (Molecular Probes). This method is also known as differential scanning fluorimetry or DSF. As a control, we tested binding of SE-1 to the purified, unrelated, MBP-NS1-NTD protein (greater than 95% pure). Reactions contained (final concentrations): 1 μM protein; 20×Sypro Orange (a 250-fold dilution of the purchased 5,000× stock solution); 0.76×EMSA buffer (7.6 mM Tris-acetate, pH 7.4, 0.76 mM KEDTA, 38 mM KCl, and 0.76 mM DTT); 4% DMSO; and 0 or 80 μM SE-1. The reactions were carried out in 0.1 ml PCR low profile 8-tube strips with optically clear flat caps (USA Scientific) in a StepOnePlus™ Real-Time PCR System (Applied Biosystems), heating from 25 to 99° C. in increments of 0.8° C. The data was analyzed using the Boltzmann sigmoidal model in the software Prism (GraphPad). Data points before and after the fluorescence intensity minimum and maximum, respectively, were excluded from fitting. The ΔTm values are the average of three independent experiments with two replicates in each experiment. A single, representative, experiment is shown.

Rns = Rns (Escherichia coli, UniProt P16114); test: % Inhibition at 82.5 μM, Rns; assay type: cell-based, Enterotoxigenic E. coli; conditions: 82.5 μM
VirF = VirF (Shigella flexneri, UniProt P0A2T1); test: % Inhibition at 82.5 μM, VirF; assay type: cell-based; conditions: 82.5 μM
Chain of VirF (P0A2T1 whole entry): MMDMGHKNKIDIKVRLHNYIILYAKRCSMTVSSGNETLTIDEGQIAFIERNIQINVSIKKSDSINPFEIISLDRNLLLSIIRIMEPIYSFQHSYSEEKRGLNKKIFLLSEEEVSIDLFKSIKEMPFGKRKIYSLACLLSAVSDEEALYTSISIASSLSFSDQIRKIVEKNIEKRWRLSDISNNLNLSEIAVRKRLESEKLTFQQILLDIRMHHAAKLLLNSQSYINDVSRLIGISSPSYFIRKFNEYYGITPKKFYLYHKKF

T2 sequence (P09378 whole entry): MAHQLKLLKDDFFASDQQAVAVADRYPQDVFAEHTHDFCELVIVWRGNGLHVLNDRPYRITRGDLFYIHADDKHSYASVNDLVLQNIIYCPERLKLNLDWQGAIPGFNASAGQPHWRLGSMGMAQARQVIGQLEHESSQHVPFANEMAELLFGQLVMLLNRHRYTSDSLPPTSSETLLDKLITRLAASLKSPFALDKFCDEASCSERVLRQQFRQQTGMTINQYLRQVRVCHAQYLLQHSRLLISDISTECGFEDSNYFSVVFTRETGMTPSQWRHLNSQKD
T1 sequence (P09377 whole entry L201R): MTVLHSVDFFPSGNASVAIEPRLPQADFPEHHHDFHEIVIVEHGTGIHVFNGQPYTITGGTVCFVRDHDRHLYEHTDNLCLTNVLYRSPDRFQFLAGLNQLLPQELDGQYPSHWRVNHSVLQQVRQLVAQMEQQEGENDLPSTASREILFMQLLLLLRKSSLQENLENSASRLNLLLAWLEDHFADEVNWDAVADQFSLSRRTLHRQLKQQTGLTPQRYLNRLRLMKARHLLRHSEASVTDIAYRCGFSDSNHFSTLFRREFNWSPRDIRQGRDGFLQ
Chain of Rns (P16114 whole entry): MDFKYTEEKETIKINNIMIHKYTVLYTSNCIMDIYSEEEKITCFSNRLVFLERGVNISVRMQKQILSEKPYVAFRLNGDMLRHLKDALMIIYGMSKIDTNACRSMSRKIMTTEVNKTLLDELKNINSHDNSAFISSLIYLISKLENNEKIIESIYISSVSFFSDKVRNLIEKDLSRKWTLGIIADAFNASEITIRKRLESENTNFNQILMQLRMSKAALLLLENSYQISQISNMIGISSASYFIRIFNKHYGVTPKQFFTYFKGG

## CCCCN1C=C(c2ccc3ccccc3n2)C(C[N+](=O)[O-])c2ccccc21 (centres unmarked) [Compound 1, 1-butyl-4-(nitromethyl)-3-quinolin-2-yl-4H-quinoline]
RhaS-GB1^201b
  IC50: ~70 µM
RhaS-GB1^201b; EMSA, dose-dependent
  inhibition of DNA binding by RhaS-GB1^201b: fully inhibit DNA binding
GB1^b-RhaR
  IC50: ~140 µM
  concentration for 50% inhibition of GB1^b-RhaR relative to RhaS-GB1^201b: two-fold higher
  inhibition of GB1^b-RhaR binding to DNA: fully inhibit
MBP-NS1-NTD
  change in melting temperature of MBP-NS1-NTD: 0.15 °C
Rns
  % Inhibition at 82.5 μM Rns: 90%
VirF
  % Inhibition at 82.5 μM VirF: 100%
